Test system: sipB::lacZY
Test: sipB::lacZY reporter β-galactosidase assay in strains expressing wild type or mutant HilD
Format: cell-based
Conditions: 20 μM fatty acid (mix: 20 μM of each)
Source text: To test the effect of mutations in hilD, we initially constructed a background Salmonella strain without chromosomal hilC, rtsA and hilD and fused sipB to lacZY to assess SPI-1 expression. hilD with a C-terminal 3XFLAG tag was cloned into pWSK29 under control of the tetRA promoter for tetracycline-inducible expression. This plasmid was subjected to site-directed mutagenesis at specific nucleotides to change selected amino acids to alanine, using the Agilent QuikChange II Site-Directed Mutagenesis kit following their protocol. Mutations were confirmed by DNA sequencing.
Salmonella strains were inoculated into LB buffered with 100 mM MOPS [3-(N-morpholino) propanesulphonic acid] pH 6.7, with necessary antibiotics, and fatty acids or control solvents to be tested. Cultures were incubated at 37° C without aeration overnight, and assays were performed using an established protocol.

[1] = strain expressing wild type HilD

Structure (SMILES) | repression of sipB expression (strain expressing HilD K293A) | repression of sipB expression (strain expressing HilD K294A) | repression of sipB expression [1] | repression of sipB expression (strain expressing HilD K43A) | repression of sipB expression (strain expressing HilD Q290A)
CCCCCCCCC/C=C\C(=O)O [c2-DDA, cis-2-dodecenoic acid] | no significant reduction | no significant reduction | 4.1 fold | – | –
CCCCCCCCCCC/C=C\CCCCCCC(=O)O [c8-EA, cis-8-eicosenoic acid] | continued to repress sipB expression | continued to repress sipB expression | – | – | –
CCCCCCCC/C=C\CCCCCCCC(=O)O [oleic acid, cis-9-octadecenoic acid] | continued to repress sipB expression | continued to repress sipB expression | 3.7 fold | no longer had a repressive effect | no longer had a repressive effect

— PMC7932555, “A diffusible signal factor of the intestine dictates Salmonella invasion through its direct control of the virulence activator HilD” (PLoS Pathogens, 2021)
